Measurements: ChEMBL document CHEMBL1201862, “PubChem BioAssay data set” (2004)
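Tested at 5 concentrations; 48 h exposure; 96-well plates; endpoints linearly interpolated, else capped at highest concentration. GI50 marks 50% less growth.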 Active and inactive are the calls of the source. Cut-off read from the data, not from the text of the source: active = GI50 up to about 1.1 µM and inactive = higher.

How the values were obtained:
Assay in all cases: growth of human tumour cells (NCI), 48 h
[1] = system: HL-60
[2] = system: LXFL 529
[3] = system: UACC-62
[4] = system: LOX IMVI
[5] = system: NCI-H522
[6] = system: UO-31
[7] = system: RXF 393
[8] = system: SW-620
[9] = system: RPMI-8226
[10] = system: A549
[11] = system: CAKI-1
[12] = system: IGROV-1
[13] = system: OVCAR-5
[14] = system: SNB-19
[15] = system: SK-MEL-2
[16] = system: HT-29
[17] = system: HOP-62
[18] = system: NCI-H23
[19] = system: CCRF-CEM
[20] = system: M14
[21] = system: SK-MEL-5
[22] = system: SNB-78
[23] = system: SN12C
[24] = system: DMS-273
[25] = system: MOLT-4
[26] = system: SNB-75
[27] = system: UACC-257
[28] = system: ACHN
[29] = system: OVCAR-8
[30] = system: RXF 631
[31] = system: SK-MEL-28
[32] = system: 786-0
[33] = system: M19-MEL
[34] = system: SF-539
[35] = system: A498
[36] = system: OVCAR-3
[37] = system: SF-295
[38] = system: Malme-3M
[39] = system: SK-OV-3
[40] = system: U-251
[41] = system: SF-268
[42] = system: EKVX
[43] = system: NCI-H226
[44] = system: TK-10
[45] = system: HCC 2998
[46] = system: COLO 205
[47] = system: KM12
[48] = system: HOP-18
[49] = system: HCT-15
[50] = system: DLD-1
[51] = system: OVCAR-4
[52] = system: K562
[53] = system: XF498
[54] = system: DMS-114
[55] = system: HOP-92
[56] = system: SR
[57] = system: HCT-116
[58] = system: KM-20L2
[59] = system: NCI-H460

## S=C(Nc1ccccc1)Nc1[nH]c(=S)sc1-c1nc2ccccc2[nH]1
[1]
  GI50: > 100 µM (inactive)
[2]
  GI50: 29.6 µM (inactive)
[3]
  GI50: 57.9 µM (inactive)
[4]
  GI50: 61.4 µM (inactive)
[5]
  GI50: 62.4 µM (inactive)
[6]
  GI50: > 100 µM (inactive)
[7]
  GI50: > 100 µM (inactive)
[8]
  GI50: > 100 µM (inactive)
[9]
  GI50: 97.3 µM (inactive)
[10]
  GI50: 65.6 µM (inactive)
[11]
  GI50: 94 µM (inactive)
[12]
  GI50: 94.2 µM (inactive)
[13]
  GI50: > 100 µM (inactive)
[14]
  GI50: 36.9 µM (inactive)
[15]
  GI50: 38.4 µM (inactive)
[16]
  GI50: > 100 µM (inactive)
[17]
  GI50: 23.1 µM (inactive)
[18]
  GI50: > 100 µM (inactive)
[19]
  GI50: > 100 µM (inactive)
[20]
  GI50: 49.8 µM (inactive)
[21]
  GI50: 28.8 µM (inactive)
[22]
  GI50: 36.1 µM (inactive)
[23]
  GI50: > 100 µM (inactive)
[24]
  GI50: 37.8 µM (inactive)
[25]
  GI50: > 100 µM (inactive)
[26]
  GI50: 38.5 µM (inactive)
[27]
  GI50: > 100 µM (inactive)
[28]
  GI50: 72.4 µM (inactive)
[29]
  GI50: 48.8 µM (inactive)
[30]
  GI50: 65.6 µM (inactive)
[31]
  GI50: 73.5 µM (inactive)
[32]
  GI50: 34.2 µM (inactive)
[33]
  GI50: > 100 µM (inactive)
[34]
  GI50: 28.6 µM (inactive)
[35]
  GI50: > 100 µM (inactive)
[36]
  GI50: 30.6 µM (inactive)
[37]
  GI50: 41.9 µM (inactive)
[38]
  GI50: 43 µM (inactive)
[39]
  GI50: 37.9 µM (inactive)
[40]
  GI50: 80 µM (inactive)
[41]
  GI50: 48.9 µM (inactive)
[42]
  GI50: 75.9 µM (inactive)
[43]
  GI50: 12.2 µM (inactive)
[44]
  GI50: 40.1 µM (inactive)
[45]
  GI50: > 100 µM (inactive)
[46]
  GI50: > 100 µM (inactive)
[47]
  GI50: > 100 µM (inactive)
[48]
  GI50: > 100 µM (inactive)
[49]
  GI50: 98.2 µM
[50]
  GI50: 76.9 µM (inactive)
[51]
  GI50: 15.2 µM (inactive)
[52]
  GI50: > 100 µM (inactive)

## Cc1ncc(CCl)c(CCl)c1O
[1]
  GI50: > 100 µM (inactive)
[2]
  GI50: > 100 µM (inactive)
[3]
  GI50: > 100 µM (inactive)
[53]
  GI50: > 100 µM (inactive)
[54]
  GI50: > 100 µM (inactive)
[5]
  GI50: > 100 µM (inactive)
[6]
  GI50: > 100 µM (inactive)
[9]
  GI50: > 100 µM (inactive)
[11]
  GI50: > 100 µM (inactive)
[12]
  GI50: > 100 µM (inactive)
[15]
  GI50: > 100 µM (inactive)
[17]
  GI50: > 100 µM (inactive)
[18]
  GI50: > 100 µM (inactive)
[19]
  GI50: > 100 µM (inactive)
[55]
  GI50: > 100 µM (inactive)
[20]
  GI50: > 100 µM (inactive)
[23]
  GI50: > 100 µM (inactive)
[24]
  GI50: > 100 µM (inactive)
[25]
  GI50: > 100 µM (inactive)
[26]
  GI50: > 100 µM (inactive)
[28]
  GI50: > 100 µM (inactive)
[30]
  GI50: > 100 µM (inactive)
[31]
  GI50: > 100 µM (inactive)
[32]
  GI50: > 100 µM (inactive)
[33]
  GI50: > 100 µM (inactive)
[34]
  GI50: > 100 µM (inactive)
[35]
  GI50: > 100 µM (inactive)
[56]
  GI50: > 100 µM (inactive)
[38]
  GI50: > 100 µM (inactive)
[39]
  GI50: > 100 µM (inactive)
[41]
  GI50: > 100 µM (inactive)
[43]
  GI50: > 100 µM (inactive)
[45]
  GI50: > 100 µM (inactive)
[46]
  GI50: > 100 µM (inactive)
[57]
  GI50: > 100 µM (inactive)
[50]
  GI50: > 100 µM (inactive)
[51]
  GI50: > 100 µM (inactive)
[52]
  GI50: > 100 µM (inactive)

## C/C(CC(=O)Nc1ccccc1C)=N/NS(=O)(=O)c1ccc(C)cc1
[1]
  GI50: > 100 µM (inactive)
[2]
  GI50: > 100 µM (inactive)
[3]
  GI50: > 100 µM (inactive)
[53]
  GI50: > 100 µM (inactive)
[4]
  GI50: > 100 µM (inactive)
[5]
  GI50: > 100 µM (inactive)
[6]
  GI50: > 100 µM (inactive)
[7]
  GI50: > 100 µM (inactive)
[8]
  GI50: > 100 µM (inactive)
[9]
  GI50: > 100 µM (inactive)
[10]
  GI50: > 100 µM (inactive)
[12]
  GI50: > 100 µM (inactive)
[13]
  GI50: > 100 µM (inactive)
[15]
  GI50: > 100 µM (inactive)
[16]
  GI50: > 100 µM (inactive)
[17]
  GI50: > 100 µM (inactive)
[18]
  GI50: > 100 µM (inactive)
[19]
  GI50: > 100 µM (inactive)
[55]
  GI50: > 100 µM (inactive)
[20]
  GI50: > 100 µM (inactive)
[21]
  GI50: > 100 µM (inactive)
[22]
  GI50: > 100 µM (inactive)
[24]
  GI50: > 100 µM (inactive)
[25]
  GI50: > 100 µM (inactive)
[26]
  GI50: > 100 µM (inactive)
[27]
  GI50: > 100 µM (inactive)
[28]
  GI50: > 100 µM (inactive)
[29]
  GI50: > 100 µM (inactive)
[30]
  GI50: > 100 µM (inactive)
[31]
  GI50: > 100 µM (inactive)
[32]
  GI50: > 100 µM (inactive)
[33]
  GI50: > 100 µM (inactive)
[58]
  GI50: > 100 µM (inactive)
[34]
  GI50: > 100 µM (inactive)
[35]
  GI50: > 100 µM (inactive)
[36]
  GI50: > 100 µM (inactive)
[37]
  GI50: > 100 µM (inactive)
[38]
  GI50: > 100 µM (inactive)
[39]
  GI50: > 100 µM (inactive)
[40]
  GI50: > 100 µM (inactive)
[41]
  GI50: > 100 µM (inactive)
[42]
  GI50: > 100 µM (inactive)
[43]
  GI50: > 100 µM (inactive)
[44]
  GI50: > 100 µM (inactive)
[45]
  GI50: > 100 µM (inactive)
[46]
  GI50: > 100 µM (inactive)
[47]
  GI50: > 100 µM (inactive)
[57]
  GI50: > 100 µM (inactive)
[50]
  GI50: > 100 µM (inactive)
[59]
  GI50: > 100 µM (inactive)
[52]
  GI50: > 100 µM (inactive)
